Measured values published in patent US5011851A, “Imidazole carboxylic acids and esters and inhibition of blood platelet aggregation therewith” (Bristol-Myers Squibb Co., priority 1990, dated 1991).
Values after ≈ are worked out from the molar mass of the structure shown. Like-named read-outs stand apart in the source and are kept apart here.

Test system: ADP-induced aggregation of human platelets
Format: cell-based
Details: human platelet rich plasma, vs ADP, read-out: Inhibition of Human Platelet Aggregation IC50 Vs ADP

| IC50 (Formula II compounds) | IC50 (Formula VIII compounds) | Compound |
| --- | --- | --- |
| 2.4 µg/mL (≈ 5.82 µM) | – | COC(=O)COc1cccc(CCc2nc(-c3ccccc3)c(-c3ccccc3)[nH]2)c1 [Example 1, Methyl [3-[2-(4,5-diphenyl-1H-imidazol-2-yl)ethyl]phenoxy]-acetate] |
| 1.2 µg/mL (≈ 3.01 µM) | – | O=C(O)COc1cccc(CCc2nc(-c3ccccc3)c(-c3ccccc3)[nH]2)c1 [Example 2, [3-[2-(4,5-diphenyl-1H-imidazol-2-yl)ethyl]phenoxy]-acetic acid] |
| – | 0.41 µg/mL (≈ 0.984 µM) | O=C(O)COc1cccc(CSc2nc(-c3ccccc3)c(-c3ccccc3)[nH]2)c1 [Example 5, [3-[[(4,5-Diphenyl-1H-imidazol-2-yl)thio]methyl]phenoxy]acetic Acid] |
| – | 0.42 µg/mL (≈ 0.976 µM) | COC(=O)COc1cccc(CSc2nc(-c3ccccc3)c(-c3ccccc3)[nH]2)c1 [Example 4, Methyl [3-[[(4,5-diphenyl-1H-imidazol-2-yl)thio]methyl]phenoxy]acetate] |
